What all share (test): Kinase selectivity, scanMAX Kinase assay panel (DiscoverX), % control at 1 uM
Holding throughout (assay type): binding

In experiment [1] the target is T1, scanMAX Kinase assay panel (Homo sapiens, UniProt O43683).
T1 construct: purchased DiscoverX
The following applies: BUB1; 1 uM; read-out: Percent Control (%). As to the method: (§1) The following experiment was performed to evaluate the inhibitory activity of the compound of the present invention on more enzymes.
(§2) Particularly, among the compounds of the present invention, the compounds of Example 1, Example 12 and Example 78 were selected and assigned to DiscoverX to measure the kinase selectivity. The experiment was performed by using scanMAX™ Kinase assay panel.
(§3) At this time, the concentration of the drug to be treated to the enzyme was adjusted to 1 uM in DMSO, and the control percentage (% control) was determined according to the following Equation 1. [Example Compound−Positive Control/Negative Control−Positive Control]×100 [Equation 1]
(§4) The enzyme selectivity of the compound of the present invention was judged to be active for the enzyme if the % control was <35 (i.e. less than 35%) for each enzyme.

Experiment [2] concerns the target T2, scanMAX Kinase assay panel (Homo sapiens, UniProt P57078).
T2 construct: purchased DiscoverX
T2 sequence (P57078 1-832): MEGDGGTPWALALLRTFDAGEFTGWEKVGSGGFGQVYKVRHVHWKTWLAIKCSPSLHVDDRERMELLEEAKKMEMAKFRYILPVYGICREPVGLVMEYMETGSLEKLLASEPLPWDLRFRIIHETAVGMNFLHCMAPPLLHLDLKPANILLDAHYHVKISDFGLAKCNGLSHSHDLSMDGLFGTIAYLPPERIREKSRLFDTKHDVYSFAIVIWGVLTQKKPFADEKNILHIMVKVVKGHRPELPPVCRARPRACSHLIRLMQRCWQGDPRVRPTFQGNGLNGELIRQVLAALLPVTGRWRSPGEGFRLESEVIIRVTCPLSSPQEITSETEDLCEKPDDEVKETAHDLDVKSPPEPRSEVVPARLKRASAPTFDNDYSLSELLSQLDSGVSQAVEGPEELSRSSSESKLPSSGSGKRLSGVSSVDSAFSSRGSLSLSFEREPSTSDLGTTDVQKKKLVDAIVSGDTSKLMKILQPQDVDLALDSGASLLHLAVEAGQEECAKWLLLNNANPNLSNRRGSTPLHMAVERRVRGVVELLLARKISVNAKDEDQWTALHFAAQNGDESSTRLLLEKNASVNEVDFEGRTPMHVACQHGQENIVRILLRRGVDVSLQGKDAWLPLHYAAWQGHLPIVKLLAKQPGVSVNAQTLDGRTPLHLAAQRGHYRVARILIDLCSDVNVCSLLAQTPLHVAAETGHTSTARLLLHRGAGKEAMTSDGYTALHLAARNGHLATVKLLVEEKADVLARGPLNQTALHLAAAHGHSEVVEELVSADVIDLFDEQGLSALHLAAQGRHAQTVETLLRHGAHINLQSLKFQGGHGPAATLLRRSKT
The following applies: RIPK4; 1 uM; read-out: Percent Control (%). As to the method:
as §1, §2, §3, §4

The target in experiment [3] is T3, scanMAX Kinase assay panel (Homo sapiens, UniProt Q00536).
T3 construct: purchased DiscoverX
T3 sequence (Q00536 whole entry): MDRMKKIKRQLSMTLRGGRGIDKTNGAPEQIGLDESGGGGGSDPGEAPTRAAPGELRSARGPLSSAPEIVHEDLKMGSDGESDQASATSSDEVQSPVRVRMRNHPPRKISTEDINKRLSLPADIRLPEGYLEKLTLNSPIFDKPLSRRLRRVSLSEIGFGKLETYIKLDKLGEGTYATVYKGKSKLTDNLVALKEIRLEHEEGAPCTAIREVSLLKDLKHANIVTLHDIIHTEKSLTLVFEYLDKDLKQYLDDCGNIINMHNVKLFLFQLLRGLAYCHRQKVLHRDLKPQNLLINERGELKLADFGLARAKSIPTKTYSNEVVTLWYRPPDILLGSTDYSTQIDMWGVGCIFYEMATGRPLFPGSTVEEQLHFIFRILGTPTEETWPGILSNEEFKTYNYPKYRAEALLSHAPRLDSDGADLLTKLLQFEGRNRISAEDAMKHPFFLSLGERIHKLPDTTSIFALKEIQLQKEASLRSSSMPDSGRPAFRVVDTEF
As to conditions: PCTK1; 1 uM; read-out: Percent Control (%). The method, then:
as §1, §2, §3, §4

The target in experiment [4] is T4, scanMAX Kinase assay panel (Homo sapiens, UniProt P45983).
T4 construct: purchased DiscoverX
The following applies: JNK1; 1 uM; read-out: Percent Control (%). As to the method: as §1, §2, §3, §4

In experiment [5] the target is T5, scanMAX Kinase assay panel (Homo sapiens, UniProt Q00537).
T5 construct: purchased DiscoverX
T5 sequence (Q00537 whole entry): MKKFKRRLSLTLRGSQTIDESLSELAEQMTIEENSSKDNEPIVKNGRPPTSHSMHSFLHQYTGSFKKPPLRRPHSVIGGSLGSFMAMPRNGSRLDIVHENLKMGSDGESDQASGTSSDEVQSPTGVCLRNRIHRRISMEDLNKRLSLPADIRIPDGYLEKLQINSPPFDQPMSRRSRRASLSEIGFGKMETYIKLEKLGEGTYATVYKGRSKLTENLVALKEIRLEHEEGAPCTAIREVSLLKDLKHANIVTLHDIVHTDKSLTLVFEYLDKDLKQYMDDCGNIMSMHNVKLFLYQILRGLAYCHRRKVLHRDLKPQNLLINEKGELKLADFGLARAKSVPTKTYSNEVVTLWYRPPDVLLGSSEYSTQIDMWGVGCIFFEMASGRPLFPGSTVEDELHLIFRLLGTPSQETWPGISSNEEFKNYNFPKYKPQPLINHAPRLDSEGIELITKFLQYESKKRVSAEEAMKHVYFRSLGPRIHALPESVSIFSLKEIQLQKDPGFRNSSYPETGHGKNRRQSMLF
The following applies: PCTK2; 1 uM; read-out: Percent Control (%). The method, then: as §1, §2, §3, §4

For experiment [6], the target named is T6, scanMAX Kinase assay panel (Homo sapiens, UniProt Q7L7X3).
T6 construct: purchased DiscoverX
T6 sequence (Q7L7X3 1-1001): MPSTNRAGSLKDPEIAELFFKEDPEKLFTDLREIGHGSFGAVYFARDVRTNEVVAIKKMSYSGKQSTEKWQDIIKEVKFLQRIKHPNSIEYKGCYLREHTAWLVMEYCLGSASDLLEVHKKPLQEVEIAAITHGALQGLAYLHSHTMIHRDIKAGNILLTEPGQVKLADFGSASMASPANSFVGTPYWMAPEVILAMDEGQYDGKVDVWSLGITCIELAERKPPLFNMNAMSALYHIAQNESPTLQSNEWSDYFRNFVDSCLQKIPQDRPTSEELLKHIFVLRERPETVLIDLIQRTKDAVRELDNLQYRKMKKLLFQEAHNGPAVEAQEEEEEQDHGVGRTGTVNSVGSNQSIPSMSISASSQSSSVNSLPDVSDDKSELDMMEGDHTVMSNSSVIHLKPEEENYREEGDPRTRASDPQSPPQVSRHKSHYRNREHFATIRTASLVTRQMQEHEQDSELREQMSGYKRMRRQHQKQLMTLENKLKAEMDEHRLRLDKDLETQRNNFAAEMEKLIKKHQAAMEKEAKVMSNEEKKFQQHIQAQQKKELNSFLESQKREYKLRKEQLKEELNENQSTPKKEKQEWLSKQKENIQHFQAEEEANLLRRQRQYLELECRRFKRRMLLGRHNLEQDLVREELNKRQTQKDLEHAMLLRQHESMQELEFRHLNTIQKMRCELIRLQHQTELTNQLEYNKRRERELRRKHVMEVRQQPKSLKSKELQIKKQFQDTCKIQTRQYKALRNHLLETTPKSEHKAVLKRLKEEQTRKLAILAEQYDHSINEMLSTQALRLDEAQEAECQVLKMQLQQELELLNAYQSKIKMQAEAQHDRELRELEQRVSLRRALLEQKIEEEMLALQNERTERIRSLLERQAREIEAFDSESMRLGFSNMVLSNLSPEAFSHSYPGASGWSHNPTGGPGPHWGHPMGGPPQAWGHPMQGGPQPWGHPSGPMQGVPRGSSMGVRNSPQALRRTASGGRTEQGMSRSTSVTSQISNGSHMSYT
The following applies: TAOK1; 1 uM; read-out: Percent Control (%). The method, then: as §1, §2, §3, §4

Experiment [7] deals with T7, scanMAX Kinase assay panel (Homo sapiens, UniProt Q9UQM7).
T7 construct: purchased DiscoverX
T7 sequence (Q9UQM7 whole entry): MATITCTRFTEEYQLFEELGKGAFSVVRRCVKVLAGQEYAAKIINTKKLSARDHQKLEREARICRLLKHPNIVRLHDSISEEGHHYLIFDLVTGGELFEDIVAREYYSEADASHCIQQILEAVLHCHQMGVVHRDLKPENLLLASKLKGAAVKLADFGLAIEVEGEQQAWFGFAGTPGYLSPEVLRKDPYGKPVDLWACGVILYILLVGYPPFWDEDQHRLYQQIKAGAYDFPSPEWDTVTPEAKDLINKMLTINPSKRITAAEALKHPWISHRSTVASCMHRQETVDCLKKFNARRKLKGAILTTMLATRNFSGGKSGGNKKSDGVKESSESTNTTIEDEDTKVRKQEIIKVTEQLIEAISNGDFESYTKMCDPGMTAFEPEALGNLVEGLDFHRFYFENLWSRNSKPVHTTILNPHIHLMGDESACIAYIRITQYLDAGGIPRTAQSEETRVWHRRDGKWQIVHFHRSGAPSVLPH
The following applies: CAMK2A; 1 uM; read-out: Percent Control (%). As to the method:
as §1, §2, §3, §4

Experiment [8] has as its target T8, scanMAX Kinase assay panel (Homo sapiens, UniProt P00519, Y253F).
T8 construct: purchased DiscoverX
As to conditions: ABL1 (Y253F)-phosphorylated; 1 uM; read-out: Percent Control (%). As to the method:
as §1, §2, §3, §4

Experiment [9] addresses T9, scanMAX Kinase assay panel (Homo sapiens, UniProt Q9UBF8).
T9 construct: purchased DiscoverX
The following applies: PIK4CB; 1 uM; read-out: Percent Control (%). The method, then:
as §1, §2, §3, §4

The target in experiment [10] is T10, scanMAX Kinase assay panel (Homo sapiens, UniProt P10721).
T10 construct: purchased DiscoverX
T10 sequence (P10721 26-976): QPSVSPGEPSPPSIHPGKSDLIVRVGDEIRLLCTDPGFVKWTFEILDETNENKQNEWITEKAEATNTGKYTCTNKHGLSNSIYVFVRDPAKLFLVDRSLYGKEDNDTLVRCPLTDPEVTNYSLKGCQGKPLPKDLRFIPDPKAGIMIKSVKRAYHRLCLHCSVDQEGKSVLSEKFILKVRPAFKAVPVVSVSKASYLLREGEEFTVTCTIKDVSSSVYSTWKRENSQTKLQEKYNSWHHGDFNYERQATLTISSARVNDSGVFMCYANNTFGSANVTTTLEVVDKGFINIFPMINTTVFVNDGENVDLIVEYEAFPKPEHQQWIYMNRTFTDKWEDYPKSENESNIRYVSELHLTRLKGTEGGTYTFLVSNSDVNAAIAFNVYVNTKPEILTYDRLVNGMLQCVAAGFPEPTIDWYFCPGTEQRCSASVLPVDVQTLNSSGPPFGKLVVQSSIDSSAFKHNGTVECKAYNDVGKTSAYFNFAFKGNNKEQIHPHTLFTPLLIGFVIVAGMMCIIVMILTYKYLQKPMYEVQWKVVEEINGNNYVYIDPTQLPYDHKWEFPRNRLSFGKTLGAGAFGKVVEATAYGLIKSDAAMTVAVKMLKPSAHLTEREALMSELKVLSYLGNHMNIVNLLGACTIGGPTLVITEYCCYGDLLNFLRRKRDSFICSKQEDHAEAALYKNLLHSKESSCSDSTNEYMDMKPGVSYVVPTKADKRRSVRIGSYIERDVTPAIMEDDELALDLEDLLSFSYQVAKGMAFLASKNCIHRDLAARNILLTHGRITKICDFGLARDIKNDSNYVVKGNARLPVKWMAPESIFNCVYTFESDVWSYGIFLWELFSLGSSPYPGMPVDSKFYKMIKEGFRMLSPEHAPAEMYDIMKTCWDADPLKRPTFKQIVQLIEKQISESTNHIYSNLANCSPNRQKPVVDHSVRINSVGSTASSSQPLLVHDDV
The following applies: 1 uM, read-out: Percent Control (%). As to the method:
as §1, §2, §3, §4

The target of experiment [11] is T11, scanMAX Kinase assay panel (Homo sapiens, UniProt P32298).
T11 construct: purchased DiscoverX
T11 sequence (P32298 whole entry): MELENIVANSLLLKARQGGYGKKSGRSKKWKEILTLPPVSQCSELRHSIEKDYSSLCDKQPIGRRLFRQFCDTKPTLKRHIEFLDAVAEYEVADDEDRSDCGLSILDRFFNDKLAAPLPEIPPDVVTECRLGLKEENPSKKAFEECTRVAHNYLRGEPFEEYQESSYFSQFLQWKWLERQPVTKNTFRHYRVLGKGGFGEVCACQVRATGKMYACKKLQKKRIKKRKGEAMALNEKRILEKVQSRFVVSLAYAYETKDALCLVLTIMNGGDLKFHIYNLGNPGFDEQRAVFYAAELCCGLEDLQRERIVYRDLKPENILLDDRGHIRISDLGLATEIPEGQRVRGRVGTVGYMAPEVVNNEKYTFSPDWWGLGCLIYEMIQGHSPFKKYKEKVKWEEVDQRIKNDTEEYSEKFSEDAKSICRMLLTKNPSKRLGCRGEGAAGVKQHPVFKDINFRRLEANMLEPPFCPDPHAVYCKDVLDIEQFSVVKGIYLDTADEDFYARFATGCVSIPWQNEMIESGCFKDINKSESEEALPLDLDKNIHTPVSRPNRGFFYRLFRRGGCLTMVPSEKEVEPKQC
As to conditions: GRK4; 1 uM; read-out: Percent Control (%). As to the method:
as §1, §2, §3, §4

Read-outs that look alike come from different tables or passages of the source.

T1 sequence (O43683 whole entry): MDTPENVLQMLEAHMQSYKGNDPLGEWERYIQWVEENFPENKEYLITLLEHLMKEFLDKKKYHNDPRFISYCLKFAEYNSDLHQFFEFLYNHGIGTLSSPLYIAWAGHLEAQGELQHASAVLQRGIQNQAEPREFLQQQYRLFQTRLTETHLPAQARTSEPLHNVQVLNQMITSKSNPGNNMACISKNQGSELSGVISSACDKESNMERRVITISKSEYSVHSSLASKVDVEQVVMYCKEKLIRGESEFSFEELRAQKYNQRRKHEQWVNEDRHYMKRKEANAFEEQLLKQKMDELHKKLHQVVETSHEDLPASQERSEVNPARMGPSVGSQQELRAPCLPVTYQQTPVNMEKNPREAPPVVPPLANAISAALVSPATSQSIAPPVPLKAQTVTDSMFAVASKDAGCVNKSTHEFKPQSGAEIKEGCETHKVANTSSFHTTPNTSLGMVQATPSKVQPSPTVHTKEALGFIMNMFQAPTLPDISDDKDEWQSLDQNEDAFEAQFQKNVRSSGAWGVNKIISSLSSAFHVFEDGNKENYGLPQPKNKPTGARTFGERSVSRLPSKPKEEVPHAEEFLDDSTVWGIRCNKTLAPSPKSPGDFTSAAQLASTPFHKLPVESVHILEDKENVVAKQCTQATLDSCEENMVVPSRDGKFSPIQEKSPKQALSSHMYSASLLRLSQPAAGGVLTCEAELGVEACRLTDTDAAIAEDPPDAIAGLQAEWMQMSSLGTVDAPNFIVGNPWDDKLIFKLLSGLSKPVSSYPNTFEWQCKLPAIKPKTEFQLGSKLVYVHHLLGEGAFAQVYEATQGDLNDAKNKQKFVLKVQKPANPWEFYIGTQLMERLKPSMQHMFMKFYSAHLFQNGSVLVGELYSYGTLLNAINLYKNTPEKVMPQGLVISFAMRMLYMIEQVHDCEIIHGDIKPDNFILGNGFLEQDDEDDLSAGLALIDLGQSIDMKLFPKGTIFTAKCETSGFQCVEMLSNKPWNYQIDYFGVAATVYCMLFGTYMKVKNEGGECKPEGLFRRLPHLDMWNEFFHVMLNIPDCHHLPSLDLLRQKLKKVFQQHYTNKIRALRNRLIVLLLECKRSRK
T9 sequence (Q9UBF8 whole entry): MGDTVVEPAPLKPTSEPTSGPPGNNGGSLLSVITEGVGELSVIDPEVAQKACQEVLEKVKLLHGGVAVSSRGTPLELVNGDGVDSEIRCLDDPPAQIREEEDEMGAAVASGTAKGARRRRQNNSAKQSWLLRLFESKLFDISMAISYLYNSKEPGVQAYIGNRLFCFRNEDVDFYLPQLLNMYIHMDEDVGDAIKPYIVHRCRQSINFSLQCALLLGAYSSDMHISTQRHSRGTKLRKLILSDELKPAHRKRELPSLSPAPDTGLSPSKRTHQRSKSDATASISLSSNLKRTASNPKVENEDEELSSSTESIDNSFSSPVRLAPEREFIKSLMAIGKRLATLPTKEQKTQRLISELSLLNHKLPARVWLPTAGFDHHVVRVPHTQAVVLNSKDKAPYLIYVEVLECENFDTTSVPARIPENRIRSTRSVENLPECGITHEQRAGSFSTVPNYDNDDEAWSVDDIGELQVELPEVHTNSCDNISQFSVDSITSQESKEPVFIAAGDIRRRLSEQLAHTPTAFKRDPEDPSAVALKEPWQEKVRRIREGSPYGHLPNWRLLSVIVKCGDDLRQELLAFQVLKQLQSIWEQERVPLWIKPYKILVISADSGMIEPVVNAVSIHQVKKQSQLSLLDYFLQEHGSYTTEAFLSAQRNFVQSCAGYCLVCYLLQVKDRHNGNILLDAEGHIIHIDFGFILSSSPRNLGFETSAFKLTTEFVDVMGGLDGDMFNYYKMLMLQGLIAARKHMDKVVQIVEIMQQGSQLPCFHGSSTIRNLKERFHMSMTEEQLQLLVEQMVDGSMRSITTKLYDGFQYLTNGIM

Take `Cc1ccc(C(=O)Nc2ccc(CN3CCN(C)CC3)c(C(F)(F)F)c2)cc1C#Cc1cnc2c(Nc3cnn(C)c3)cccn12` [Example 1, 4-methyl-3-((8-((1-methyl-1H-pyrazol-4-yl)amino)imidazo[1,2-a]pyridin-3-yl)ethynyl)-N-(4-((4-methylpiperazin-1-yl)methyl)-3-(trifluoromethyl)phenyl)benzamide]: the remaining binding at 1 µM in experiment [1] came to 84%; in experiment [2], 13%; in experiment [3], 93%; in [4], 4%; in experiment [5], 19%; in experiment [6] it was 51%. The remaining binding at 1 µM in experiment [7] came out at 82%; in experiment [8] it was 0%; in experiment [9] it was 88%; in experiment [10] (KIT-autoinhibited), 77%; in experiment [10] (KIT), 0%; in [11] it was 100%.
As to `Cc1cn(-c2cc(NC(=O)c3ccc(C)c(C#Cc4cnc5c(Nc6cnn(C)c6)cccn45)c3)cc(C(F)(F)F)c2)cn1` [Example 12, 4-methyl-N-(3-(4-methyl-1H-imidazol-1-yl)-5-(trifluoromethyl)phenyl)-3-((8-((1-methyl-1H-pyrazol-4-yl)amino)imidazo[1,2-a]pyridin-3-yl)ethynyl)benzamide], the remaining binding at 1 µM in experiment [1] is 100%; in [2], 100%; in [3] it was 100%; in experiment [4], 63%; in [5] it was 98%; in [6] it was 100%. For the same compound, the remaining binding at 1 µM in experiment [7] stood at 96%; in experiment [8] it was 10%; in experiment [9], 100%; in experiment [10] (KIT-autoinhibited), 98%; in [10] (KIT), 1%; in experiment [11] it was 100%.
As for `Cc1ccc(NC(=O)C2(C(=O)Nc3ccc(F)cc3)CC2)cc1C#Cc1cnc2c(Nc3cnn(C(C)C)c3)cccn12` [Example 78], the remaining binding at 1 µM in experiment [1] was found to be 100%; in experiment [2], 100%; in experiment [3], 100%; in experiment [4] it was 99%; in experiment [5] it was 100%; in experiment [6], 89%. The remaining binding at 1 µM was 100% in experiment [7]; 88% in experiment [8]; 99% in experiment [9]; 93% in experiment [10] (KIT-autoinhibited); 0% in [10] (KIT); 100% in [11].

The values above are taken from patent US10870647B2, “Imidazopyridine derivative, method for preparing same, and pharmaceutical composition containing same as active ingredient for preventing or treating cancer” (DAEGU-GYEONGBUK MEDICAL INNOVATION FOUNDATION, priority 2016, dated 2020).
